Reference: patent US20070010671A1, “Novel quinazoline derivatives and methods of treatment related to the use thereof” (priority 2003, published 2007)
Structures can show the parent of a compound that is named as a salt. Where two headings read alike, the source gives them in different places.

Target: MCH receptor (Homo sapiens, UniProt Q99705)
Assay: High throughput functional screening FLIPR/FDSS6000: inhibition of MCH-evoked intracellular Ca2+ changes
Type: cell-based
Conditions: for class: class by percent of control at 10^-7 M or IC50
Method in brief: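 Constitutively active non-endogenous MCH-R cells; Fluo4-AM 4 μM, 2.5 mM probenecid, 1 hr, 37° C; cpd 3 min, 37° C; MCH 50 nM (antagonist mode); kinetic Ca2+ read Ex488/Em530, 290 s.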

[1] = class by percent of control at 10^−7 M or by IC50, read-out: class
[2] = class by percent of control at 10^-7 M or by IC50, read-out: class

SMILES	class	further results
COc1ccccc1CNC(=S)N[C@H]1CC[C@@H](Nc2nc(N(C)C)c3ccccc3n2)CC1 [compound 367, N-(cis-4-{[4-(dimethylamino)quinazolin-2-yl]amino}cyclohexyl)-N′-(2-methoxybenzyl)thiourea]	2 (Class 2: The value of percent of control at 10^−7 M was from 40% to 60% or the value of IC50 was from 50 nM to 200 nM.)	
CN(C)c1nc(N[C@H]2CC[C@@H](CNC(=O)Nc3ccccc3I)CC2)nc2ccccc12 [compound 500, N-[(cis-4-{[4-(dimethylamino)quinazolin-2-yl]amino}cyclohexyl)methyl]-N′-(2-iodophenyl)urea]	1 (Class 1: The value of percent of control at 10^−7 M was less than 40% or the value of IC50 was less than 50 nM.)	
CN(C)c1nc(N[C@H]2CC[C@@H](NC(=O)c3ccc(Oc4cc(F)cc(F)c4)nc3)CC2)nc2ccccc12 [Example 1063, 6-(3,5-difluorophenoxy)-N-(cis-4-{[4-(dimethylamino)quinazolin-2-yl]amino}cyclohexyl)nicotinamide]		IC50 [1]: > 200 nM
CN(C)c1nc(N[C@H]2CC[C@@H](NC(=O)Nc3cccc([N+](=O)[O-])c3)CC2)nc2ccccc12 [compound 135]		IC50 [2]: > 200 nM
CN(C)c1nc(N[C@H]2CC[C@@H](CNC(=O)Nc3cccc(Cl)c3Cl)CC2)nc2ccccc12 [Example 2, 1-(2,3-Dichloro-phenyl)-3-[cis-4-(4-dimethylamino-quinazolin-2-ylamino)-cyclohexylmethyl]-urea hydrochloride]		IC50 (antagonist activity, 50 nM of MCH, FLIPR or FDSS, read-out: IC50): 13 nM
CN(C)c1nc(N[C@H]2CC[C@@H](CNC(=O)Nc3c(Cl)cccc3Cl)CC2)nc2ccccc12 [Example 1025, N-(2,6-dichlorophenyl)-N′-[(cis-4-{[4-(dimethylamino)quinazolin-2-yl]amino}cyclohexyl)methyl]urea]		IC50 [1]: < 50 nM
CCCCCCCCCCc1ccc(NC(=S)NC[C@H]2CC[C@@H](Nc3nc(N(C)C)c4ccccc4n3)CC2)cc1 [compound 738]	3 (Class 3: The value of percent of control at 10^−7 M was more than 60% or the value of IC50 was more than 200 nM.)	
CN(C)c1nc(N[C@H]2CC[C@@H](CNC(=O)Oc3ccc(Br)cc3)CC2)nc2ccccc12 [compound 870]		IC50 [2]: > 200 nM
CCc1cccc(NC(=S)N[C@H]2CC[C@@H](Nc3nc(N(C)C)c4ccccc4n3)CC2)c1 [compound 307]	2 (Class 2: The value of percent of control at 10^−7 M was from 40% to 60% or the value of IC50 was from 50 nM to 200 nM.)	
Cc1cccc(CNC(=S)N[C@H]2CC[C@@H](Nc3nc(N(C)C)c4ccccc4n3)CC2)c1 [compound 310, N-(cis-4-{[4-(dimethylamino)quinazolin-2-yl]amino}cyclohexyl)-N′-(3-methylbenzyl)thiourea]	2 (Class 2: The value of percent of control at 10^−7 M was from 40% to 60% or the value of IC50 was from 50 nM to 200 nM.)	
CN(C)c1nc(N[C@H]2CC[C@@H](NC(=S)Nc3c(F)cc(Br)cc3Br)CC2)nc2ccccc12 [compound 360, N-(2,4-dibromo-6-fluorophenyl)-N′-(cis-4-{[4-(dimethylamino)quinazolin-2-yl]amino}cyclohexyl)thiourea]	1 (Class 1: The value of percent of control at 10^−7 M was less than 40% or the value of IC50 was less than 50 nM.)	
